Results published in patent US6902728B1, “Chemokine receptor antagonist and cyclosporin in combined therapy” (Applied Research Systems ARS Holding N.V., priority 1998, dated 2005).
Several values for one entry are separate records, joined by “and”; a condition that tells them apart may be missing. Identical values can stand only once.

Columns and labels:
[1] = test system: human microvascular endothelial cells (DMVEC); experiment: FACS analysis of adhesion molecule surface expression on DMVEC; type: cell-based; conditions: IL-1β 5 ng/ml, 12 hr; 3 independent experiments
Experimental: Flow cytometry analysis of dermal microvascular cells (DMVEC) was performed essentially as described (Weber C. et al., 1995). Briefly, confluent DMVEC stimulated with IL-Iβ (5 ng/ml), or left untreated for 12 h, were trypsinized, reacted with IL-saturating concentrations of ICAM-1 mAb RR1/1 (kindly provided by Dr. R. Rothlein), E-selectin mAb, VCAM-1 mAb (both Serotec), or isotype control for 30 min on ice, stained with fluorescein isothiocyanate (FITC)-conjuzated goat anti-mouse IgG (Boehringer Mannheim), and analysed in a FACScan (Becton Dickinson). After correction for unspecific binding, data were expressed as specific mean log fluorescence intensity (sMFI) in channels.

MonoMac 6 cells on DMVEC = experiment: Monocyte recruitment on microvascular endothelium under physiological flow (laminar flow assay); type: cell-based, human
Experimental: The interaction of monocytes with DMVEC was studied in laminar flow assays performed essentially as descried (Weber C. et al., 1997, Kukerti S. et al., 1997, Piali L. et al., 1998). Briefly, DMVEC were grown to confluence in 35 mm Petri dishes, and stimulated with IL-1β (5 ng/ml) or left untreated for 12 h. The plates were assembled as the lower wall m a parallel wall flow chamber and mounted on the stage of an Olympus IMT-2 inverted microscope with 20× and 40× phase contrast objectives. Monotypes (MonoMac 6 cells) were cultured as reported (Ziegler-Heitbrock H. W. L. et al., 1988, Weber C. et al., 1993) and resuspended at 10^6/ml in assay buffer (HBSS) containing 10 mM Hepes/pH 7.4 and 0.5% HAS. Shortly before assay, 1 mM Mg^2+and 1 mM Ca^2+ was added. The cell suspensions were kept in a heating block at 37° C. during the assay and were perfused into the flow chamber at a rate of 1.5 dyn/cm for 5 min. For inhibition experiments, monocytes were preincubated with Met-RANTES at different concentrations (0.01-1 μg/ml) for 30 min on ice. The number of firmly adherent cells after 5 rain was quantified in multiple fields (at least 5 per experiment) by analysis of images recorded with a long integration JVC 3CCD video camera and a JVC SR L 900 E video recorder, and were expressed as cells/mm^2. The type of adhesion analysed was restricted to primary, i.e. direct interactions of monocytes with endotbelium. As an inverse measure of firm arrest, the number of cells rolling at reduced velocity on endothelium was determined within the last 30 sec. of the 5 min intervals, and were assessed as the percentage of all interactions in the field. The number of cells spreading or transmigrating after 5 min intervals was determined in high power fields as described (Luscinskas F. W. et al., 1994), and expressed as percentage of cells firmly attached.
In an attempt to gain insight into potential mechanisms of action of Met-RANTES, we studied whether a blockade of RANTES receptors could inhibit the firm arrest and diapedesis of monocytes on microvascular endothelium. To this end, we used monocytic MonoMac 6 cells that show the adhesive characteristics and integrin repertoire of mature monocytes, and express several chemokine receptors including CCR1 (Erl W. et al., 1995). DMVEC were grown to confluence on Petri dishes which were either left unstimulated or were activated with IL-1β (5 ng/ml) for 12 h. […] Under such physiological flow conditions, MonoMac 6 cells undergo short periods of rolling, and the attachment of a proportion of cells can be readily converted into shear-resistant arrest. After 5 min of accumulation, the number of MonoMac 6 cells that had undergone firm adhesion to the endothelium was determined (FIG. 2(a)).

[2] = test system: dermal microvascular endothelium (DMVEC); experiment: In vitro RANTES binding assay on DMVEC (modified ELISA); design: species or system human
Experimental: The DMVEC were grown to confluency on coated 96 well flat bottom plates, The resultant endothelial monolayer was either left untreated or treated with various concentrations of IL-L1β (0.1 to 5 ng/ml) for 12 h. The RANTES binding assay was a modification of a previously described procedure (Pattison J. et al., 1994, Wiedermann C. J. et al., 1993). Horseradish, peroxidase (HRP) conjugated anti-human-RANTES monoclonal antibody VL1 (0.1 μg) was pre-incubated at 25° C. for 30 min with an excess of recombinant human RANTES (20 μg/ml) in DMVEC growth media (without supplements). The chemokine-antibody complex was added then used to assay the relative chemokine binding capacity of the microvascular endothelium. The endothelial monolayer was gently washed 1× with unsupplemented growth media (25° C.) and the chemokine-antibody complex was added and incubated at 25° C. for 30 min. The wells were then washed four times with media without sera at 25° C. […] The optical density at 406 nm of the plate was determined using an ELISA plate reader.
Since a reduction of monocyte infiltration into vascular luminal spaces represented a prominent feature of Met-RANTES treatment in both transplantation models, we set out to study potential mechanisms for this effect. […] Using an ELISA-like format, the capacity of DMVEC to bind the antigen-mAb complex as opposed to mAb alone was determined. […]

Row | RANTES binding to microvascular endothelium following prestimulation ([2]; prestimulation with proinflammatory cytokine (5 ng/ml, 12 hours)) | RANTES binding to microvascular endothelium without prestimulation ([2]; resting DMVEC, HRP-VL1 mAb/RANTES complex) | Substance | ICAM-1 surface expression, SMFI [1] | spreading or transmigration of monocytes (MonoMac 6 cells on DMVEC; after firm arrest, 5 min, IL-1β activated DMVEC) | firm adhesion of monocytic cells to unstimulated microvascular endothelium (MonoMac 6 cells on DMVEC; endothelial cells pre-exposed to RANTES) | firm arrest and accumulation of monocytes on IL-1β-activated microvascular endothelium (MonoMac 6 cells on DMVEC; endothelium pre-exposed to RANTES (10 ng/ml, 30 min), within 5 min) | fraction of monocytes rolling on the activated microvascular endothelium (MonoMac 6 cells on DMVEC; inverse measure of firm arrest, IL-1β activated DMVEC)
1 | – | – | IL-1β: proinflammatory cytokine purchased from Sigma, used to activate DMVEC | 502 channels and 592 channels and 432 channels | – | – | – | –
2 | greatly increased | could bind some RANTES protein | RANTES: recombinant human C-C chemokine (regulated upon activation, normal T-cell expressed and secreted) | – | did not alter | no significant effect | markedly enhanced | reduced
